Where only a bound is given, the exact number is not on record here.

In the first assay the target is T1, Human Recombinant Matriptase 2 (Homo sapiens, UniProt Q8IU80).
T1 construct: made in house
T1 sequence (Q8IU80 1-811): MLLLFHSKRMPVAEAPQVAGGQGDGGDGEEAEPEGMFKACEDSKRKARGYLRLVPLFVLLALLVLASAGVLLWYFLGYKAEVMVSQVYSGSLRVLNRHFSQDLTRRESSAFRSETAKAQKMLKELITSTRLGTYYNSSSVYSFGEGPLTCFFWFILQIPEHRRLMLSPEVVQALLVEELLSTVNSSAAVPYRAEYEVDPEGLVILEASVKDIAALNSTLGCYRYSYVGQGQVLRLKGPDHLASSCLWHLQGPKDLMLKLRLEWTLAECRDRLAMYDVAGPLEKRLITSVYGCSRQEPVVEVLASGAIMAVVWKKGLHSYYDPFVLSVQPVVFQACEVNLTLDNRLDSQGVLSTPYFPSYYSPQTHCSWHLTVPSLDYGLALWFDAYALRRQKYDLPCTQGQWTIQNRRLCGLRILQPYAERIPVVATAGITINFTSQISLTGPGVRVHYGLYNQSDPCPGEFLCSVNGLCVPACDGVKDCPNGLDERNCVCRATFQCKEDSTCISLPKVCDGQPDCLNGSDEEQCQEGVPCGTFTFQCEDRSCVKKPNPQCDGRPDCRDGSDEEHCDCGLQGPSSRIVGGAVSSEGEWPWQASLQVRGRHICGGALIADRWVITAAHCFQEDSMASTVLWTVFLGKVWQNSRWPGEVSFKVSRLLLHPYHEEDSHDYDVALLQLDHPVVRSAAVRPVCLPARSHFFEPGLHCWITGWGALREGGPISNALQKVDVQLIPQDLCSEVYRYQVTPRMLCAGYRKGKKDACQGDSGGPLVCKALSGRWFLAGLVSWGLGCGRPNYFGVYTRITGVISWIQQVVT
Put plainly: Matriptase 2 inhibition, fluorescence based assay (Method I). The conditions noted are these: Table A; Ki of Matriptase-2; read-out: Mat-2 Ki. Format: biochemical. In short, it runs like this:
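Fluorogenic readout (Ex 360/Em 480 nm) taken 60 min after adding 62 μM Boc-Gln-Ala-Arg-AMC, following 30-min enzyme–compound preincubation at 25 °C. Conditions: 3.5 nM in-house enzyme, pH 7.5 Tris/NaCl/gelatin buffer, 1% DMSO; percent inhibition versus concentration fitted by variable-slope sigmoidal regression.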
One may read the Ki as a measure of affinity in units of concentration, obtained from inhibition or displacement. For the compound `CN1CCC(COC(=O)c2cc3ccc(CN)nc3n2Cc2cc(NS(=O)(=O)CC[C@@H]3CCCN3)cc3ccccc23)CC1` [Compound 2], the Ki lay within 500 to 3000 nM.

Take `CNC(=O)c1cc2ccc(CN)nc2n1Cc1cc(NS(=O)(=O)CC[C@@H]2CCCN2)cc2ccccc12` [Compound 3]: the inhibitory constant (Ki) lay within 100 to 500 nM.

Regarding `NCc1ccc2cc(C(=O)O)n(Cc3cc(NS(=O)(=O)Cc4ccsc4)cc4ccccc34)c2n1` [Compound 4], the Ki was at most 100 nM.

On to `CN1CCC(COC(=O)c2cc3ccc(CN)nc3n2Cc2cc(NS(=O)(=O)Cc3ccsc3)cc3ccccc23)CC1` [Compound 5], for which the inhibitory constant (Ki) was at most 100 nM.

`CN1CCC(CNC(=O)c2cc3ccc(CN)nc3n2Cc2cc(NS(=O)(=O)Cc3ccsc3)cc3ccccc23)CC1` [Compound 6, 6-(aminomethyl)-N-((1-methylpiperidin-4-yl)methyl)-1-((3-((thiophen-3-ylmethyl)sulfonamido)naphthalen-1-yl)methyl)-1H-pyrrolo[2,3-b]pyridine-2-carboxamide]: the Ki is at most 100 nM.

As to `NCc1ccc2cc(C(=O)OCCCCN3CCOCC3)n(Cc3cc(NS(=O)(=O)Cc4ccccc4)cc4ccccc34)c2n1` [Compound 7, 4-morpholinobutyl 6-(aminomethyl)-1-((3-((phenylmethyl)sulfonamido)naphthalen-1-yl)methyl)-1H-pyrrolo[2,3-b]pyridine-2-carboxylate], the inhibition constant Ki was at most 100 nM.

`NCc1ccc2cc(C(=O)OCC3CCNCC3)n(Cc3cc(NS(=O)(=O)Cc4ccccc4)cc4ccccc34)c2n1` [Compound 9, (piperidin-4-yl)methyl 6-(aminomethyl)-1-{[3-(phenylmethanesulfon-amido)naphthalen-1-yl]-methyl}-1H-pyrrolo[2,3-b]pyridine-2-carboxylate]: the inhibition constant (Ki) was at most 100 nM.

For `CN1CCC(C)(COC(=O)c2cc3ccc(CN)nc3n2Cc2cc(NS(=O)(=O)Cc3ccccc3)cc3ccccc23)CC1` [Compound 10, (1,4-dimethylpiperidin-4-yl)methyl 6-(amino-methyl)-1-{[3-(phenyl-methanesulfonamido)-naphthalen-1-yl]meth-yl}-1H-pyrrolo[2,3-b]-pyridine-2-carboxylate], the Ki is at most 100 nM.

As to `CN1CCC(CNC(=O)c2cc3ccc(CN)nc3n2Cc2cc(NS(=O)(=O)Cc3ccccc3)cc3ccccc23)CC1` [Compound 12, 6-(aminomethyl)-N-[(1-methylpiperidin-4-yl)-methyl]-1-{[3-(phenyl-methanesulfonamido)-naphthalen-1-yl]meth-yl}-1H-pyrrolo[2,3-b]-pyridine-2-carboxamide], the Ki was at most 100 nM.

As to `CCN1CCC(COC(=O)c2cc3ccc(CN)nc3n2Cc2cc(NS(=O)(=O)Cc3ccccc3)cc3ccccc23)CC1` [Compound 13, (1-ethylpiperidin-4-yl)-methyl 6-(aminomethyl)-1-{[3-(phenylmethane-sulfonamido)naphthalen-1-yl]methyl}-1H-pyr-rolo[2,3-b]pyridine-2-carboxylate], the Ki is at most 100 nM.

For `CC(C)N1CCC(CNC(=O)c2cc3ccc(CN)nc3n2Cc2cc(NS(=O)(=O)Cc3ccccc3)cc3ccccc23)CC1` [Compound 14, 6-(aminomethyl)-1-{[3-(phenylmethanesulfon-amido)naphthalen-1-yl]-methyl}-N-{[1-(propan-2-yl)piperidin-4-yl]-methyl}-1H-pyrrolo-[2,3-b]pyridine-2-car-boxamide], the inhibition constant Ki was at most 100 nM.

On to `CC(C)N1CCC(COC(=O)c2cc3ccc(CN)nc3n2Cc2cc(NS(=O)(=O)Cc3ccccc3)cc3ccccc23)CC1` [Compound 15], for which the Ki was at most 100 nM.

Turning to `CC(C)N1CCC(OC(=O)c2cc3ccc(CN)nc3n2Cc2cc(NS(=O)(=O)Cc3ccccc3)cc3ccccc23)CC1` [Compound 16, 1-(propan-2-yl)piperidin-4-yl 6-(aminomethyl)-1-{[3-(phenylmethane-sulfonamido)naphthalen-1-yl]methyl}-1H-pyr-rolo[2,3-b]pyridine-2-carboxylate], the inhibitory constant (Ki) is at most 100 nM.

Take `CN1CCC(COC(=O)c2cc3ccc(CN)nc3n2Cc2cc(NS(=O)(=O)Cc3ccccc3)cc3ccccc23)CC1` [Compound 17, (1-methylpiperidin-4-yl)methyl 6-(amino-methyl)-1-{[3-(phenyl-methanesulfonamido)-naphthalen-1-yl]methyl}-1H-pyrrolo[2,3-b]pyr-idine-2-carboxylate]: the Ki was at most 100 nM.

With `CN1CCC(OC(=O)c2cc3ccc(CN)nc3n2Cc2cc(NS(=O)(=O)Cc3ccccc3)cc3ccccc23)CC1` [Compound 18, 1-methylpiperidin-4-yl 6-(aminomethyl)-1-{[3-(phenylmethanesulfon-amido)naphthalen-1-yl]-methyl}-1H-pyrrolo[2,3-b]pyridine-2-carboxylate], the inhibition constant (Ki) is at most 100 nM.

Still in this assay, the particulars now being: Table B; Human Recombinant Matriptase 2, 3.5 nM enzyme, 62 μM substrate, 30 mins preincubation; read-out: Mean Ki.
For the compound `CN1CCC(COC(=O)c2cc3ccc(CN)nc3n2Cc2cc(NS(=O)(=O)Cc3ccsc3)cc3ccccc23)CC1=O` (stereo not shown) [Compound 2.32], the Ki is at most 100 nM.

For `CN1CCC(C(OC(=O)c2cc3ccc(CN)nc3n2Cc2cc(NS(=O)(=O)Cc3ccccc3)cc3ccccc23)C2CC2)CC1` (stereo not shown) [Compound 2.33], the inhibition constant Ki was at most 100 nM.

Consider `CNC12CC(COC(=O)c3cc4ccc(CN)nc4n3Cc3cc(NS(=O)(=O)Cc4c(C)cccc4C)cc4ccccc34)(C1)C2` [Compound 2.34], for which the Ki was at most 100 nM.

Regarding `NCc1ccc2cc(C(=O)Nc3ccc(N)cc3)n(Cc3cc(NS(=O)(=O)Cc4ccccc4)cc4ccccc34)c2n1` [Compound 2.35], the inhibitory constant (Ki) lay within 100 to 500 nM.

In the case of `CN(C)c1ccc(NC(=O)c2cc3ccc(CN)nc3n2Cc2cc(NS(=O)(=O)Cc3ccccc3)cc3ccccc23)cc1` [Compound 2.36], the inhibitory constant (Ki) was in the range of 100 to 500 nM.

For `CN1CCC(COC(=O)c2cc3ccc(CN)nc3n2CC(NS(=O)(=O)Cc2ccccc2)c2ccccc2)CC1` (stereo not shown) [Compound 2.37], the Ki is above 3000 nM.

With `CNC12CC(COC(=O)c3cc4ccc(CN)nc4n3Cc3cc(NS(=O)(=O)Cc4c(C)cccc4C)cc4c3CCCC4)(C1)C2` [Compound 2.38], the inhibition constant Ki was at most 100 nM.

Take `CN1CCC(COC(=O)c2cc3ccc(CN)nc3n2Cc2cccn3ccnc23)CC1` [Compound 2.39]: the inhibition constant Ki was above 3000 nM.

On to `CN(C)C12CC(COC(=O)c3cc4ccc(CN)nc4n3Cc3cc(NS(=O)(=O)Cc4ccccc4)cc4ccccc34)(C1)C2` [Compound 2.40], for which the inhibitory constant (Ki) was at most 100 nM.

Turning to `CNC12CC(COC(=O)c3cc4ccc(CN)nc4n3Cc3cc(NS(=O)(=O)Cc4ccccc4)cc4ccccc34)(C1)C2` [Compound 2.41], the Ki is at most 100 nM.

`Cc1cccc(C)c1CS(=O)(=O)Nc1cc2c(c(Cn3c(C(=O)OCc4cncn4C(C)(C)C)cc4ccc(CN)nc43)c1)CCCC2` [Compound 2.42]: the inhibition constant (Ki) is 100 to 500 nM.

Consider `Cc1cccc(C)c1CS(=O)(=O)Nc1cc2c(c(Cn3c(C(=O)OCC4CCN(C)CC4)cc4ccc(CN)nc43)c1)CCCC2` [Compound 2.43], for which the Ki was at most 100 nM.

For the compound `Cc1cccc(C)c1CS(=O)(=O)Nc1cc2c(c(Cn3c(C(=O)OCc4nccn4C)cc4ccc(CN)nc43)c1)CCCC2` [Compound 2.44], the inhibition constant (Ki) is 100 to 500 nM.

On to `CN1CCC(COC(=O)c2cc3ccc(CN)nc3n2Cc2cc(NS(=O)(=O)Cc3ccccc3)cs2)CC1` [Compound 2.45], for which the Ki was above 3000 nM.

Turning to `CN1CCC(COC(=O)c2cc3ccc(CN)nc3n2Cc2cccc3cnccc23)CC1` [Compound 2.46], the Ki was above 3000 nM.

`CN1CCC(COC(=O)c2cc3ccc(CN)nc3n2Cc2cccc(NS(=O)(=O)Cc3ccccc3)c2)CC1` [Compound 2.48]: the Ki fell in the range of 100 to 500 nM.
